From patent US9060945B2, “Use of danielone and derivatives thereof in skin care” (DSM IP Assets B.V., priority 2012, dated 2015)

What was measured:
Type in all cases: cell-based
[1] = tested on: Human melanocytes moderately pigmented (HEMn-MP); experiment: Cell-pellet depigmentation assay; conditions: scale 1 to 5 (5 = dark control cell pellet, 1 = very light brown cell pellet)
Protocol: Human melanocytes moderately pigmented (HEMn-MP) were seeded in 6-well culture plates at a cell density of 2×10E5 cells/mL and preincubated for three days in a 1:2 mixture of M2-Medium (Clonetics) and Promocell-Medium together ‘Culture medium’ in an incubator at a temperature of 37° C. and at 5% CO2 Atmosphere. Culture medium was exchanged with Culture Medium containing compound and melanogenesis progressed for another three days in an incubator at same incubation conditions as described above. Compound dilutions were done in duplicates. Cells were harvested after trypsinization and pooled in eppendorf-tubes, centrifugated and supernatant removed. The remaining cell pellet was photographed and visually checked for whitening effects. The pellets were scored for their darkness in a scale 1 to 5 (5 corresponding to dark control cell pellet) and 1 corresponding to a very light brown cell pellet.

[2] = tested on: Normal human melanocytes NHM (HEMn-MP); experiment: Effect on melanogenesis, comparative example (melanin synthesis in cell culture); conditions: for skin whitening activity (in words): at all three concentrations tested; for % melanin inhibition: 3 days, 405 nm
Protocol: Normal human melanocytes NHM (HEMn-MP) were seeded in 96 well cell culture plates (20′000 cells per well) and grown to sub-confluence for three days in a 1:2 mixture of M2-Medium (Clonetics) and Promocell-Medium together ‘Culture medium’. Culture medium was exchanged with Culture Medium containing compound and melanogenesis progressed for another three days at a temperature of 37° C. and at 5% CO2 atmosphere. Including cell layer and culture supernatant total melanin was extracted using 1.7M KOH with shaking at 300 rpm for approximately 1 hour at RT. We measured melanin content at 405 nm in an absorbance plate reader. The experiment was done in triplicates. We used PTU as a positive control.

[3] = tested on: Normal human melanocytes moderately pigmented (HEMn-MP); experiment: Quantification of melanin synthesis in cell culture; conditions: 3 days, baseline = 100, 405 nm
Protocol: Normal human melanocytes moderately pigmented (HEMn-MP) were seeded in 96 well cell culture plates (20′000 cells per well) and grown to sub-confluence for three days in a 1:2 mixture of M2-Medium (Clonetics) and Promocell-Medium together ‘Culture medium’. Culture medium was exchanged with Culture Medium containing compound and melanogenesis progressed for another three days in an incubator at a temperature of 37° C. and at 5% CO2 atmosphere. Including cell layer and culture supernatant total melanin was extracted using 1.7M KOH with shaking at 300 rpm for approximately 1 hour at room temperature. We measured melanin content at 405 nm in an absorbance plate reader. We use phenylthiourea (PTU) as a positive control at a concentration of 0.0152% (1 mM). PTU is a tyrosinase inhibitor (Poma 1999) and is commonly used as a reference in cell pigmentation assays (see e.g. Le Pape 2008).

[4] = tested on: Normal human melanocytes moderately pigmented (HEMn-MP); experiment: Cytotoxicity, MTT assay; conditions: 3 days incubation, OD 550 nm
Protocol: Cytotoxicity was measured using the MTT assay (Roche). In brief: Normal human melanocytes moderately pigmented (HEMn-MP) were precultured for 24 hrs, and then incubated with compounds for three days. We then added MTT (Roche) labeling reagent 10 μl to each well (final concentration 0.5 mg/ml) and incubated the microtiterplate for 4 hrs at 37° C., and under 5% CO2. After addition of 100 μl solubilisation solution into each well, the plate was allowed to stand overnight in the incubator (37° C., 5% CO2. The absorbance OD 550 nm was measured in an absorbance plate reader (ELX 800 BIO-TEK Instrument) and the data is shown in Table 1.

## COc1cc(C(=O)CO)cc(OC)c1O [Danielone, 2-hydroxy-1-(4-hydroxy-3,5-dimethoxy-phenyl)-ethanone]
[1]; 0.0025%
  Darkness level of the cell pellet: 2
[2]
  skin whitening activity (in words): very efficient
[2]; concentration 0.0025%
  % melanin inhibition: 1.51%
[2]; concentration 0.005%
  % melanin inhibition: −40.20%
[2]; concentration 0.01%
  % melanin inhibition: −49.25%
[3]; concentration 0.000625 %
  Total melanin: 104%
[3]; concentration 0.00125 %
  Total melanin: 75%
[3]; concentration 0.0025 %
  Total melanin: 66%
[4]; concentration 0.00025 %
  Viability: 112%
[4]; concentration 0.0025 %
  Viability: 113%
[4]; concentration 0.025 %
  Viability: 51%

## NC(=S)Nc1ccccc1 [PTU, phenylthiourea, reference compound]
[1]; 0.0152%
  Darkness level of the cell pellet: 1
[3]; concentration 0.0152 % (1 mM)
  Total melanin: 58%

## COc1cc(C(=O)CCO)ccc1O [beta-hydroxypropiovanillon, reference compound]
[2]
  skin whitening activity (in words): no activity
[2]; concentration 0.0025%
  % melanin inhibition: 7.45%
[2]; concentration 0.005%
  % melanin inhibition: 7.45%
[2]; concentration 0.01%
  % melanin inhibition: 4.26%
